{"source": "paper PMC4302236", "about": "“Functional profile of a novel modulator of serotonin, dopamine, and glutamate neurotransmission” (Psychopharmacology, 2014)", "key": {"[1]": {"tested_on": "forelimb catalepsy", "details": "mouse, in vivo", "method": "Forelimb catalepsy was measured using the bar grip test. Mice were placed in a Lucite mouse cage outfitted with a 3-mm diameter wooden rod suspended 4 cm from the floor of the cage. During testing, the mouse was allowed to grip the bar firmly with hind legs placed firmly on the floor of the cage. The mouse was required to maintain this posture for at least 10 s for a valid test session. Catalepsy was then quantitated by recording the latency (in seconds) to step both front paws down to the floor of the cage up to a maximum time of 120 s. If the mouse stepped off the bar immediately (less than 10 s), another attempt was made up to a maximum of ten attempts. The longest duration of immobility was recorded if none of the ten attempts were beyond 10 s. Catalepsy was measured for each mouse at 2, 3, 4, and 6 h after drug administration. Mean forelimb catalepsy time (in seconds) was calculated across each group and time point. Data were analyzed using ANOVA with Newman–Keuls post hoc test."}, "[2]": {"tested_on": "T1, Adrenergic, 1β", "T1 construct": "tissue NovaScreen/Caliper/Perkin-Elmer; host or cells: rat liver (inferred)", "T1 sequence (P15823 whole entry)": "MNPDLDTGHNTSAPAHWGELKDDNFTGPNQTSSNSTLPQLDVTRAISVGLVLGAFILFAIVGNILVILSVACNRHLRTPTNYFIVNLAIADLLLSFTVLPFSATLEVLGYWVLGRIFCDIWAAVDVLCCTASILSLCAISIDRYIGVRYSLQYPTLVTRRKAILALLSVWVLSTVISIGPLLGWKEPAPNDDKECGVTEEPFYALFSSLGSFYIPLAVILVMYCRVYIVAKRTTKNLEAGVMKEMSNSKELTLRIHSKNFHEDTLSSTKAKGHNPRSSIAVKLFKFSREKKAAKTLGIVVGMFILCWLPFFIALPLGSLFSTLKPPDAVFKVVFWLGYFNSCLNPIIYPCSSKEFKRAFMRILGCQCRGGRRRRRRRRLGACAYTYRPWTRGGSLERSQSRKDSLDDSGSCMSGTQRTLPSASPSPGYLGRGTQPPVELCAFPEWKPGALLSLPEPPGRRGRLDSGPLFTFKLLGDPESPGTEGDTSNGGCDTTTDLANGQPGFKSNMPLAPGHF", "test": "NovaScreen broad selectivity panel at 100 nM, Adrenergic 1β", "details": "average of replicate tubes, read-out: % Inhibition of binding at 100 nM concentration, Adrenergic 1β"}, "[3]": {"tested_on": "GluN2B phosphorylated at tyrosine (Y) 1472", "test": "GluN2B Y1472 phosphorylation state in nucleus accumbens", "type": "in vivo", "details": "mice, 3 mg/kg p.o., 120 min after dosing", "description": "Brains were rapidly removed from the skull. […] Brain tissue was prepared for SDS-PAGE as described above, and protein homogenates (15 μg) were separated on 3-7 % gradient gels, and proteins transferred to nitrocellulose membranes. Portions of each membrane were immunoblotted for GluN2B phosphorylated at […] (rabbit polyclonal) and total GluN2B (mouse monoclonal) (Thermo Fisher Scientific, Rockford, IL)."}, "[4]": {"tested_on": "muscarinic cholinergic receptors", "test": "Binding to muscarinic cholinergic receptors"}, "[5]": {"molecular_target": "5-HT2B receptors (Homo sapiens, UniProt P41595)", "sequence (P41595 whole entry)": "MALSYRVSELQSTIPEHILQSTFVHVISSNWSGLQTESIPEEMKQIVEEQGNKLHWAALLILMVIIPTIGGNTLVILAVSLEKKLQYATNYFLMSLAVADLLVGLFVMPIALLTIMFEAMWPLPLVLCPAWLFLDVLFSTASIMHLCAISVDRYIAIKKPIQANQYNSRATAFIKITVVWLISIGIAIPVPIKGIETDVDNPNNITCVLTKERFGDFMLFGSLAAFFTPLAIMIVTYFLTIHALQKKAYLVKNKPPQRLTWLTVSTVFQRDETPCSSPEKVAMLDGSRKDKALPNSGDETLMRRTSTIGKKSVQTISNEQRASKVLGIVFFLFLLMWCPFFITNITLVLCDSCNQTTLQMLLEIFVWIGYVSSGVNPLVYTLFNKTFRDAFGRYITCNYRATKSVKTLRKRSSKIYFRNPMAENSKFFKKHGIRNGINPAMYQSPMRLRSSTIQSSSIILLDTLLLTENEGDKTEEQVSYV", "test": "Binding to 5-HT2B receptors"}, "[6]": {"molecular_target": "5-HT2A receptor (Homo sapiens, UniProt P28223)", "sequence (P28223 whole entry)": "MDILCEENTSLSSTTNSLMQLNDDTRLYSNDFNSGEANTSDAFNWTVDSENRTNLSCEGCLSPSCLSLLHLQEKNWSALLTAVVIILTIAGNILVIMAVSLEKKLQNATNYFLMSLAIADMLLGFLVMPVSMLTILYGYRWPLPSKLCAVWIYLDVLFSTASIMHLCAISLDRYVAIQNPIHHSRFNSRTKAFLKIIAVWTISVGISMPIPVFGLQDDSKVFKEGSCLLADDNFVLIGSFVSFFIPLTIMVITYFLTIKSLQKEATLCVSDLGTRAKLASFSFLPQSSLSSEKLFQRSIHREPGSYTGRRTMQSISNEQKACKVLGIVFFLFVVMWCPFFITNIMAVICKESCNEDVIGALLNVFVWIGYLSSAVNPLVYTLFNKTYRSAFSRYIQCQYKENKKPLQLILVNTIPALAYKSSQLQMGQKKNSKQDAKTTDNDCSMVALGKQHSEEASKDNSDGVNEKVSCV", "details": "read-out: IC50, antagonism of serotonin-induced increase in calcium fluorescence; serotonin 30 nM"}, "[7]": {"tested_on": "panel of 66 receptors, ion channels, and enzymes", "test": "NovaScreen broad selectivity panel at 100 nM, whole panel", "type": "binding"}, "[8]": {"molecular_target": "T2, Histamine H1 receptor (Bos taurus, UniProt P30546)", "T2 construct": "tissue NovaScreen/Caliper/Perkin-Elmer; host or cells: bovine cerebellum", "T2 sequence (P30546 whole entry)": "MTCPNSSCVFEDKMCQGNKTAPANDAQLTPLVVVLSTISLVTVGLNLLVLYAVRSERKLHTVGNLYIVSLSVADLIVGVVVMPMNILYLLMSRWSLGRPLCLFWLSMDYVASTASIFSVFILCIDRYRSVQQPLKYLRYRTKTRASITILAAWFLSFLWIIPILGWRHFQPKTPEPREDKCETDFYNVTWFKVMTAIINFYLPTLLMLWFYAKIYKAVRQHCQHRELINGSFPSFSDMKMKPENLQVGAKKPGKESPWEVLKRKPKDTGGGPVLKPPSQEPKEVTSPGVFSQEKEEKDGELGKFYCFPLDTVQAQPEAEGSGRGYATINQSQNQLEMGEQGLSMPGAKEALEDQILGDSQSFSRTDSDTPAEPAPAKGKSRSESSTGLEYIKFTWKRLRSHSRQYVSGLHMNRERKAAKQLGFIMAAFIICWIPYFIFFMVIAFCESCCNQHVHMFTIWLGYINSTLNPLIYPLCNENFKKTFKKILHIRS", "test": "Histamine H1 receptor binding in bovine cerebellum (3H-pyrilamine)", "description": "Binding activity at a variety of receptor targets, including recombinant human serotonin receptors and rat dopamine D2 and human recombinant dopamine D4 receptors, was measured in vitro using standard radioligand displacement methods (NovaScreen/Caliper/Perkin-Elmer, Hanover, MD), to determine affinity. […] D2 receptor binding was measured at rat recombinant receptors expressed in Chinese hamster ovary (CHO) cells and using ^3H-methylspiperone as a radioligand and in rat striatum using ^3H-sulpiride as a radioligand. […] D4 receptor binding was measured at human recombinant receptor s expressed in CHO cells and using ^3 H-methylspiperone as a radioligand. D1 receptor binding at human recombinant receptor was measured in CHO cells using ^3H-SCH23390 as a radioligand. 5-HT2C receptor binding was measured in pig choroid plexus using ^3 H-methylsergide as a radioligand. Binding to alpha adrenergic receptors in the rat frontal cortex (alpha1A) or rat liver (alpha1B) was measured using ^3H-prazosin as a radioligand. Histamine H1 receptor binding was measured in bovine cere- bellum using ^3H-pyrilamine as a radioligand. […] The affinity constant (Ki) for each receptor subtype or inhibitory concentration 50 (IC50) for inhibition in functional assays was calculated."}, "[9]": {"tested_on": "DOI-induced headtwitch", "test": "Inhibition of DOI-induced headtwitch (in vivo 5-HT2A antagonism)", "details": "mice, p.o., 30 min prior to DOI […] i.p.", "description": "Inhibition of DOI-induced headtwitch was measured as a functional assay for the in vivo potency of the compound as an antagonist at 5-HT2A receptors. […] Headtwitches were then counted for 5 min, starting 10 min after DOI injection. An ID50 for inhibition of DOI-induced headtwitch was calculated using a four-parameter logistical fit (Excel Fit software, IDBS)."}, "[10]": {"tested_on": "social defeat model", "test": "Social interaction behavior after repeated social defeat", "type": "in vivo", "details": "mice, 1 mg/kg i.p. once daily 28 days after 10 days defeat; 150 s test", "description": "Mice were tested for social isolation behavior after repeated exposure (for 10 days) to an aggressive resident mouse in the social defeat paradigm as described by [Berton et al. (2006)]. […] On the day after the last drug or vehicle treatment, the mice were placed in an open field in the presence of a resident mouse (within a smaller cage) and the animal’s behavior recorded by videotape for 150 s. Videotracking software (Noldus, Netherlands) was used to calculate the total time each mouse spent in specified open-field quadrants, defined schematically in Fig. 8. The total time (s) spent by mice representing each drug treatment group in the interaction zone (Fig. 8) in proximity to the resident mouse or, in the corner zones, at a distance from the resident mouse (Fig. 8) was expressed as a mean (±SEM)."}, "[11]": {"tested_on": "striatal dopamine metabolism", "test": "Striatal dopamine metabolism (HPLC-EC of DA, DOPAC, HVA)", "type": "in vivo, mice", "details": "for DOPAC/DA, chronic (21 day) dosing, mean / HVA/DA, chronic (21 day) dosing, mean: striatum 2 h after last dose; for DOPAC/DA, acute (2 h) dosing, mean / HVA/DA, acute (2 h) dosing, mean: striatum 2 h after dose", "description": "Measurements of tissue dopamine levels were performed at CDC-NIOSH. […] Striatum was rapidly dissected from each mouse brain, weighed, and placed into Eppendorf tubes that were frozen in liquid nitrogen and stored at -80 °C. […] Tissues were homogenized in 100 μl of ice-cold 0.2 M perchloric acid containing 1 μM dihydroxybenzylamine (DHBA) as an internal standard and centrifuged at 10,000×g for 10 min at 4 °C. The supernatant was filtered through a 0.2 μm nitrocellulose membrane, and an aliquot (10 μl) was injected from a temperature-controlled (4 °C) automatic sample injector (Waters 717plus Autosampler) connected to a Waters 515 HPLC pump. Catecholamines were separated on a C18 reverse-phase column ([…]; Waters […] 25 cm×4.6 mm; 5 μm), electrochemically detected (Waters 464 Pulsed Electrochemical Detector; range 10 nA, potential +0.7 V), and analyzed using Millennium software. […] A flow rate of 1 ml/min was used. […] The recovery of each analyte was adjusted with respect to the internal standard and quantified from a standard curve. The levels of dopamine and its metabolites, DOPAC and HVA, were calculated from the AUC values for each (based on microgram per gram (μg/g) tissue wet weight) and expressed as a percent of the saline control."}, "[12]": {"molecular_target": "T3, human recombinant D2-short receptor (Homo sapiens, UniProt P14416)", "T3 construct": "expressed in transfected cells; host or cells: CHO", "T3 sequence (P14416 1-414 isoform P14416-2)": "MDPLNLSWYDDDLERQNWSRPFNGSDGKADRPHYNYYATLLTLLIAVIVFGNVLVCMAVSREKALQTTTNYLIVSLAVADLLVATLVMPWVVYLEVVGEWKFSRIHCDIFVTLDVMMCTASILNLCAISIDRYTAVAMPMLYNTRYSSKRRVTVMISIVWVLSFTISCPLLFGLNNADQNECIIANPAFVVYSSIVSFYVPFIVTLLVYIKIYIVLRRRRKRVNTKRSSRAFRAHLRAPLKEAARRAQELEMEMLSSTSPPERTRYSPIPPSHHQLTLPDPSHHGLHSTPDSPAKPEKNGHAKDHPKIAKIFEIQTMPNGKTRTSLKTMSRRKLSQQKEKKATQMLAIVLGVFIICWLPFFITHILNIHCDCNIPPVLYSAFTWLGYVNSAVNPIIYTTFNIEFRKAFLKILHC", "test": "Blockade of dopamine-induced inhibition of forskolin-stimulated cAMP accumulation in CHO cells", "type": "cell-based", "details": "forskolin 10 μM, read-out: IC50, blocking dopamine inhibition of forskolin-stimulated cAMP accumulation"}, "[13]": {"tested_on": "phospho-serine (S) 9 GSK-3β", "details": "mouse, in vivo; for Phospho-S9 GSK-3β, PFC / Phospho-S9 GSK-3β, accumbens / Phospho-S9 GSK-3β, striatum: po", "method": "Each brain was rapidly removed from the skull. Nucleus accumbens, striatum, and prefrontal cortex were dissected free-hand, frozen in liquid nitrogen, and stored at −80 °C until analyzed for phosphoprotein levels. […] Levels of phospho-GSK-3β were normalized for total levels of GSK-3β and expressed as a percent of phosphoprotein levels in the vehicle-injected controls."}, "[14]": {"details": "1 mg/kg p.o. once daily 21 days"}, "[15]": {"details": "3 mg/kg p.o. once daily 21 days"}, "[16]": {"details": "10 mg/kg p.o. once daily 21 days"}}, "note": "Read-outs that look alike come from different tables or passages of the source."}
{"compound": "CN1CCN2c3c(cccc31)[C@@H]1CN(CCCC(=O)c3ccc(F)cc3)CC[C@@H]12", "note": "[ITI-007, 1-(4-fluoro-phenyl)-4-((6bR,10aS)-3-methyl-2,3,6b,9,10,10a-hexahydro-1H,7H-pyrido[3′,4′:4,5]pyrrolo[1,2,3-de]quinoxalin-8-yl)-butan-1-one]", "values": [{"measurement": "Cataleptogenic activity", "setting": "[1]", "result": "no demonstrable cataleptogenic activity"}, {"measurement": "Forelimb catalepsy, bar grip test", "setting": "[1]; po, 30 mg/kg", "result": "statistically significant increase in forelimb catalepsy"}, {"measurement": "inhibition at 0.1 µM", "setting": "[2]", "result": 85.4, "unit": "%"}, {"measurement": "GluN2B phosphorylation at Y1472 in nucleus accumbens", "setting": "[3]", "result": "180±20 % of control"}, {"measurement": "Binding to muscarinic cholinergic receptors (e.g., M3 subclasses)", "setting": "[4]", "result": "no significant binding"}, {"measurement": "Binding to 5-HT2B receptors", "setting": "[5]", "result": "did not significantly bind"}, {"measurement": "IC50", "setting": "[6]", "result": 7, "unit": "nM"}, {"measurement": "Binding to the other targets of the panel", "setting": "[7]; 100 nM, custom panel of 66 receptors, ion channels, and enzymes", "result": "did not bind significantly"}, {"measurement": "Ki", "setting": "[7]; read-out: projected Ki values (>50 % binding inhibition), single concentration 100 nM, at the 5-HT2A, D1, D2, D4, alpha1A and alpha1B receptors, and at SERT", "result": "≤ 100", "unit": "nM"}, {"measurement": "Binding to histamine H1 receptors", "setting": "[8]", "result": "no significant binding"}, {"measurement": "Ki", "setting": "[8]; radioligand displacement, unit inferred", "result": "> 1000", "unit": "nM"}, {"measurement": "ID50, inhibition of DOI-induced headtwitch", "setting": "[9]", "result": 0.09, "unit": "mg/kg"}, {"measurement": "Time spent in interaction zone (social behavior) after chronic social defeat", "setting": "[10]", "result": "no such reduction in social behavior"}, {"measurement": "DOPAC/DA, chronic (21 day) dosing, mean", "setting": "[11]; [14]", "result": 4.69}, {"measurement": "HVA/DA, chronic (21 day) dosing, mean", "setting": "[11]; [14]", "result": 9.44}, {"measurement": "DOPAC/DA, acute (2 h) dosing, mean", "setting": "[11]; 1 mg/kg p.o. once", "result": 4.98}, {"measurement": "HVA/DA, acute (2 h) dosing, mean", "setting": "[11]; 1 mg/kg p.o. once", "result": 8.06}, {"measurement": "DOPAC/DA, chronic (21 day) dosing, mean", "setting": "[11]; [15]", "result": 4.54}, {"measurement": "HVA/DA, chronic (21 day) dosing, mean", "setting": "[11]; [15]", "result": 7.99}, {"measurement": "DOPAC/DA, acute (2 h) dosing, mean", "setting": "[11]; 3 mg/kg p.o. once", "result": 4.57}, {"measurement": "HVA/DA, acute (2 h) dosing, mean", "setting": "[11]; 3 mg/kg p.o. once", "result": 7.47}, {"measurement": "DOPAC/DA, chronic (21 day) dosing, mean", "setting": "[11]; [16]", "result": 5.80}, {"measurement": "HVA/DA, chronic (21 day) dosing, mean", "setting": "[11]; [16]", "result": 10.47}, {"measurement": "DOPAC/DA, acute (2 h) dosing, mean", "setting": "[11]; 10 mg/kg p.o. once", "result": 6.02}, {"measurement": "HVA/DA, acute (2 h) dosing, mean", "setting": "[11]; 10 mg/kg p.o. once", "result": 8.40}, {"measurement": "IC50", "setting": "[12]", "result": 338, "unit": "nM"}, {"measurement": "Effect on S9 GSK-3β phosphorylation in striatum at any dose tested", "setting": "[13]", "result": "no significant effect"}, {"measurement": "Phospho-S9 GSK-3β, PFC", "setting": "[13]; 3 mg/kg", "result": "103.4±3.1", "unit": "% vehicle control"}, {"measurement": "Phospho-S9 GSK-3β, accumbens", "setting": "[13]; 3 mg/kg", "result": "122.9±8.6", "unit": "% vehicle control"}, {"measurement": "Phospho-S9 GSK-3β, striatum", "setting": "[13]; 3 mg/kg", "result": "106.6±2.1", "unit": "% vehicle control"}, {"measurement": "Phospho-S9 GSK-3β, striatum", "setting": "[13]; 10 mg/kg", "result": "98.2±5.1", "unit": "% vehicle control"}, {"measurement": "Phospho-S9 GSK-3β, PFC", "setting": "[13]; 30 mg/kg", "result": "112.1±2.7", "unit": "% vehicle control"}, {"measurement": "Phospho-S9 GSK-3β, accumbens", "setting": "[13]; 30 mg/kg", "result": "105.5±2.2", "unit": "% vehicle control"}, {"measurement": "Phospho-S9 GSK-3β, striatum", "setting": "[13]; 30 mg/kg", "result": "108.0±2.9", "unit": "% vehicle control"}]}
